Data from ChEMBL document CHEMBL4028802, “DILIrank: the largest reference drug list ranked by the risk for developing drug-induced liver injury in humans” (Drug Discov Today, 2016).

Columns and labels:
[1] = species on record: Homo sapiens; test: Liver toxicity in human assessed as induction of drug-induced liver injury by measuring severity class index
[2] = species on record: Homo sapiens; test: Liver toxicity in human assessed as induction of drug-induced liver injury by measuring verified drug-induced liver injury concern status
For DILI severity class in this document: key of the grades not given here.

For `CCCC(C)(COC(N)=O)COC(=O)NC(C)C` (stereo not given) [CARISOPRODOL], the DILI_severity_class [1] was 0 and the DILI_Concern [2] was “No-Dili-Concern”.
For `COc1ccccc1OCCNCC(O)COc1cccc2[nH]c3ccccc3c12` (stereo not given) [CARVEDILOL], the DILI_severity_class [1] was 3 and the DILI_Concern [2] was “Less-Dili-Concern”.
`CC[C@H](C)C[C@H](C)CCCCCCCCC(=O)N[C@H]1C[C@@H](O)[C@@H](NCCN)NC(=O)[C@@H]2[C@@H](O)CCN2C(=O)[C@H]([C@H](O)CCN)NC(=O)[C@H]([C@H](O)[C@@H](O)c2ccc(O)cc2)NC(=O)[C@@H]2C[C@@H](O)CN2C(=O)[C@H]([C@@H](C)O)NC1=O` [CASPOFUNGIN] was tested, and the DILI_severity_class [1] was 7 and the DILI_Concern [2] was “Ambiguous-Dili-Concern”.
In the case of `N[C@@H](C(=O)N[C@@H]1C(=O)N2C(C(=O)O)=C(Cl)CS[C@H]12)c1ccccc1` [CEFACLOR ANHYDROUS], the DILI_severity_class [1] was 3 and the DILI_Concern [2] was “Less-Dili-Concern”.
For `CC1=C(C(=O)O)N2C(=O)[C@@H](NC(=O)[C@H](N)c3ccc(O)cc3)[C@H]2SC1` [CEFADROXIL], the DILI_severity_class [1] was 7 and the DILI_Concern [2] was “Less-Dili-Concern”.
With `Cc1nnc(SCC2=C(C(=O)O)N3C(=O)[C@@H](NC(=O)Cn4cnnn4)[C@H]3SC2)s1` [CEFAZOLIN] the DILI_severity_class [1] was 3 and the DILI_Concern [2] was “Less-Dili-Concern”.
For `CO/N=C(\C(=O)N[C@@H]1C(=O)N2C(C(=O)O)=C(/C=C\c3scnc3C)CS[C@H]12)c1csc(N)n1` [CEFDITOREN], the DILI_severity_class [1] was 2 and the DILI_Concern [2] was “Ambiguous-Dili-Concern”.
In the case of `C=CC1=C(C(=O)O)N2C(=O)[C@@H](NC(=O)/C(=N\OCC(=O)O)c3csc(N)n3)[C@H]2SC1` [CEFIXIME], the DILI_severity_class [1] was 4 and the DILI_Concern [2] was “Ambiguous-Dili-Concern”.
For `CCN1CCN(C(=O)N[C@@H](C(=O)N[C@@H]2C(=O)N3C(C(=O)O)=C(CSc4nnnn4C)CS[C@H]23)c2ccc(O)cc2)C(=O)C1=O` [CEFOPERAZONE], the DILI_severity_class [1] was 3 and the DILI_Concern [2] was “Less-Dili-Concern”.
`CO/N=C(\C(=O)N[C@@H]1C(=O)N2C(C(=O)O)=C(COC(C)=O)CS[C@H]12)c1csc(N)n1` [CEFOTAXIME] was tested, and the DILI_severity_class [1] was 5 and the DILI_Concern [2] was “Less-Dili-Concern”.
`CO[C@@]1(NC(=O)C2SC(=C(C(N)=O)C(=O)O)S2)C(=O)N2C(C(=O)O)=C(CSc3nnnn3C)CS[C@@H]21` (stereo not given in full) [CEFOTETAN] was tested, and the DILI_severity_class [1] was 3 and the DILI_Concern [2] was “Ambiguous-Dili-Concern”.
For `CO[C@@]1(NC(=O)Cc2cccs2)C(=O)N2C(C(=O)O)=C(COC(N)=O)CS[C@@H]21` [CEFOXITIN], the DILI_severity_class [1] was 3 and the DILI_Concern [2] was “Ambiguous-Dili-Concern”.
In the case of `COCC1=C(C(=O)O)N2C(=O)[C@@H](NC(=O)/C(=N\OC)c3csc(N)n3)[C@H]2SC1` [CEFPODOXIME], the DILI_severity_class [1] was 3 and the DILI_Concern [2] was “Ambiguous-Dili-Concern”.
For `CC=CC1=C(C(=O)O)N2C(=O)[C@@H](NC(=O)[C@H](N)c3ccc(O)cc3)[C@H]2SC1` [CEFPROZIL], the DILI_severity_class [1] was 4 and the DILI_Concern [2] was “Less-Dili-Concern”.
In the case of `CC(C)(O/N=C(\C(=O)N[C@@H]1C(=O)N2C(C(=O)[O-])=C(C[n+]3ccccc3)CS[C@H]12)c1csc(N)n1)C(=O)O` [CEFTAZIDIME], the DILI_severity_class [1] was 3 and the DILI_Concern [2] was “Less-Dili-Concern”.
For `Nc1nc(/C(=C/CC(=O)O)C(=O)N[C@@H]2C(=O)N3C(C(=O)O)=CCS[C@H]23)cs1` [CEFTIBUTEN], the DILI_severity_class [1] was 3 and the DILI_Concern [2] was “Ambiguous-Dili-Concern”.
With `CO/N=C(\C(=O)N[C@@H]1C(=O)N2C(C(=O)O)=CCS[C@H]12)c1csc(N)n1` [CEFTIZOXIME] the DILI_severity_class [1] was 4 and the DILI_Concern [2] was “Ambiguous-Dili-Concern”.
With `CO/N=C(\C(=O)N[C@@H]1C(=O)N2C(C(=O)O)=C(CSc3nc(=O)c(=O)[nH]n3C)CS[C@H]12)c1csc(N)n1` [CEFTRIAXONE] the DILI_severity_class [1] was 4 and the DILI_Concern [2] was “Less-Dili-Concern”.
For `CO/N=C(\C(=O)N[C@@H]1C(=O)N2C(C(=O)O)=C(COC(N)=O)CS[C@H]12)c1ccco1` [CEFUROXIME], the DILI_severity_class [1] was 5 and the DILI_Concern [2] was “Less-Dili-Concern”.
In the case of `Cc1ccc(-c2cc(C(F)(F)F)nn2-c2ccc(S(N)(=O)=O)cc2)cc1` [CELECOXIB], the DILI_severity_class [1] was 3 and the DILI_Concern [2] was “Less-Dili-Concern”.
